According to PubChem BioAssay AID2044 (Broad Institute, 2009):
Records with an inconclusive call do not appear.

Test system: T. cruzi beta-gal in NIH3T3, GalScreen luminescence, 90 h
Test: inhibitors of intracellular T. cruzi replication, confirmation, NIH3T3 host cells, beta-gal luminescence (AID 2044)

C#CCOCCOCCOCCNc1nc(N2CCN(C(=O)CCCCCCCCCCNC(=O)Cn3cc(C[C@@H](C)O)nn3)CC2)nc(N2CCN(C(=O)CCCCCCCCCCNC(=O)[C@H](CCCN=C(N)N)n3cc(C[C@@H](C)CC)nn3)CC2)n1
EC50: 0.967 µM
